Data published in patent publication EP0922458A1, “Potentiation of temozolomide by an ATase inhibitor” (CANCER RESEARCH CAMPAIGN TECHNOLOGY LIMITED, priority 1993, dated 1994).
pIC50: −log10 of the molar value. Read-outs that look alike come from different tables or passages of the source.

Legend:
SF767 cells = settings: WO 91/13898; cited from earlier work
control XP cells (pZip) = experiment: Cytotoxicity in XP lines (MTT assay); type: cell-based; settings: for pIC50: 120 h, XP line with ATase < 2 fmol/mg protein (control pZip; printed on the line 'phAT'), MTT assay, 5 days, without BG; for sensitivity of control XP cells relative to human ATase cDNA-transfected cells: pZip versus phAT XP cells, Table I
Protocol: (§1) Human ATase cDNA-transfected or control XP cells [Fan et al., Nucleic Acid. Res., 18:5723 (1990)] were grown in MEM and 1000 cells/well were plated. After a 3 hour incubation, temozolomide, freshly diluted into MEM, was added and the plates incubated for 5 days. Survivals were assayed as described by Morten et al., Carcinogenesis, 13:483 (1992). In the BG experiments, 300 cells were plated in triplicate onto 9cm plates and allowed to attach for 5 hours. BG was added (10 µM in MEM) 3 hours prior to the treatment with temozolomide which was freshly diluted into MEM containing 10 µM BG. After 7 days, colonies were strained with Giemsa and counted.

[1] = test system: human ATase cDNA-transfected XP cells (phAT); experiment: Cytotoxicity in XP lines (MTT assay); type: cell-based; settings: 120 h, XP line with ATase 1240 fmol/mg protein (phAT; printed on an unlabelled line), 5 days, without BG
Protocol: as §1

control XP cells = experiment: Colony forming assay with BG pretreatment; type: cell-based; settings: 10 µM BG 3 hours before, colonies after 7 days
Protocol: as §1

human tumour cell lines = experiment: Single dose cytotoxicity, summary over the tumour cell lines; type: cell-based; settings: single dose
Protocol: (§2) Cell lines were routinely grown as monolayers in DMEM supplemented with 10% foetal calf serum, 25mM HEPES, glutamine and penicillin/streptomycin. Cytotoxicity studies were carried out in HEPES-free medium in a 5% CO2 atmosphere. 750-1000 cells/well were plated in 96 well plates and, after overnight incubation, were treated for 2 hours with or without 33 µM BG. Temozolomide or CCNU was then added for 1 hour in the same medium, the final DMSO concentration not exceeding 1%. […] For the repeat temozolomide dozing schedule, cells were given consecutive 24 hour treatments, with fresh medium each day. Assays were carried out at least in duplicate.

MCF-7 [2] = experiment: Repeated dose temozolomide cytotoxicity; type: cell-based; settings: Homo sapiens
Protocol: as §2

MAWI [3] = experiment: Repeated dose temozolomide cytotoxicity; type: cell-based; settings: Homo sapiens
Protocol: as §2

ZR-75-1 [4] = experiment: Cellular uptake of [^14C]-labelled temozolomide; type: in vitro ADME, human; settings: 4°C, 200 µM labelled drug
Protocol: (§3) 8-carbamoyl-3-[^14C]methylimidazo[5,1-d]-1,2,3,5-tetrazin-4-(3H)-one (specific activity 26.3mCi/mmole) was kindly supplied by Dr. John Slack (Aston Molecules Ltd, Birmingham, UK). Cell suspensions (5 x 10^6/ml) were equilibrated at 4°C and treated with 200 µM of the labelled drug. 10^6 cells were pipetted into eppendorf tubes and centrifuged through 250µl of an oil mixture (4:1 "Three-in-One"/Dow Corning silicone oil). The aqueous layer was aspirated and the oil layer gently washed with a further 300 µl of saline. After centrifugation both layers were aspirated, the cell pellet dissolved in a tissue solubilizer such as Protosol® (quaternary ammonium hydroxide in toluene) and added to scintillation vials containing Optiphase® (95-99% diisopropylnaphthalene).

MAWI [5] = experiment: Cellular uptake of [^14C]-labelled temozolomide; type: in vitro ADME, human; settings: 4°C, 200 µM labelled drug
Protocol: as §3

U373 [6] = experiment: Repeated dose temozolomide cytotoxicity; type: cell-based, human; settings: for pIC50: Homo sapiens, U373 MG, U373, DAY 4 of repeated daily 24 hour doses
Protocol: as §2

[7] = target: T1, O^6-alkylguanine DNA alkyltransferase (ATase) (Homo sapiens, UniProt P16455); experiment: O^6-alkylguanine DNA alkyltransferase assay of treated cells; type: cell-based; settings: three-hour incubation, read-out: concentration causing 50% reduction in ATase content
T1 construct: endogenous in cells; host or cells: human tumour cell lines U373, MCF-7, LOVO, MAWI (extracts of treated cells)
T1 sequence (P16455 1-207): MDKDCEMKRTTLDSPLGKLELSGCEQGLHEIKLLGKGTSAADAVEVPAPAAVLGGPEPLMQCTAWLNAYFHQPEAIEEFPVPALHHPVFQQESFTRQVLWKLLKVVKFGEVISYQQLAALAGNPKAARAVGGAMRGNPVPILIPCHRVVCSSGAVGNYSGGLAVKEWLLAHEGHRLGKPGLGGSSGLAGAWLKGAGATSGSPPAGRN
Protocol: This assay was carried out as described by Lee et al., Cancer Res., 51:619 (1991). Thus, varying amounts of cell extracts are incubated with DNA which contains O^6-methylguanine labelled with [^3H] in the methyl group, at preferably 37°C for 2 hours in a total volume of 300 µl of 1 mg/ml of bovine serum albumin in buffer 1. After incubation, bovine serum albumin (100µl of a 10 mg/ml solution in buffer 1) and perchloric acid (100µl of a 4 M solution) are added in rapid succession. A further 2 ml of 1M perchloric is added and the mixture heated at 75°C for 40 minutes to degrade the DNA to acid soluble material. The protein, which contains the methylated ATase, is then collected by centrifugation, washed with 4ml of 1M perchloric acid before being resuspended in 300 µl of 0.01M sodium hydroxide and dissolved in 3ml of aqueous scintillation fluid (Ecoscint A: National Diagnostics), and counted. The protein content of the cells was determined with a BioRad protein assay kit using bovine serum albumin as a standard. ATase activity is expressed as fmol methyl transferred to protein per mg of total protein in the extract.

U373 [8] = experiment: Single dose cytotoxicity (sulphorhodamine protein assay); type: cell-based, human; settings: for pIC50: Homo sapiens, U373 MG, U373 (astrocytoma), 1 hour drug
Protocol: as §2

MCF-7 [9] = experiment: as above; type: cell-based, human; settings: for pIC50: Homo sapiens, MCF7, MCF-7 (breast), 1 hour drug
Protocol: as §2

U87MG = experiment: as above; type: cell-based, human; settings: for pIC50: Homo sapiens, U-87 MG, U87MG (astrocytoma), 1 hour drug
Protocol: as §2

ZR-75-1 [10] = experiment: as above; type: cell-based, human; settings: for pIC50: Homo sapiens, ZR-75-1 (breast), 1 hour drug
Protocol: as §2

MAWI [11] = experiment: as above; type: cell-based, human; settings: for pIC50: Homo sapiens, MAWI (colo-rectal), 1 hour drug
Protocol: as §2

LS174T = experiment: as above; type: cell-based, human; settings: for pIC50: Homo sapiens, LS174T (colo-rectal), 1 hour drug
Protocol: as §2

LOVO = experiment: as above; type: cell-based, human; settings: for pIC50: Homo sapiens, LOVO (colo-rectal), 1 hour drug
Protocol: as §2

SMILES: CC1CCC(NC(=O)N(CCCl)N=O)CC1 (stereo not shown) [Me CCNU]
- decrease in the ED50 when combined with O^6-benzylguanine (SF767 cells): 3.8 fold

SMILES: NC(=O)c1ncn2c(=O)n(CCCl)nnc12 [mitozolomide, 8-carbamoyl-3-(2-chloroethyl)imidazo[5,1-d]-1,2,3,5-tetrazin-4-(3H)-one]
- pIC50 (control XP cells (pZip)): 6.10
- sensitivity of control XP cells relative to human ATase cDNA-transfected cells (control XP cells (pZip)): 4-5 fold
- pIC50 [1]: 5.38

SMILES: Cn1nnc2c(C(N)=O)ncn2c1=O [temozolomide, 8-carbamoyl-3-methylimidazo[5,1-d]-1,2,3,5,-tetrazin-4-(3H)-one]
- effect of BG pretreatment on cytotoxicity of temozolomide (control XP cells): no measurable effect
- pIC50 (control XP cells (pZip)): 4.64
- sensitivity of control XP cells relative to human ATase cDNA-transfected cells (control XP cells (pZip)): 4-5 fold
- pIC50 [1]: 4.00
- difference in the single dose cytotoxicity between MCF-7 and the colorectal lines (LOVO and MAWI) (human tumour cell lines): 3-4 fold
- pIC50 (MCF-7 [2]; MCF7, 24 h, DAY 1, with BG): 4.05
- pIC50 (MCF-7 [2]; MCF7, 24 h, DAY 1, without BG): 3.50
- pIC50 (MCF-7 [2]; MCF7, 48 h, DAY 2, with BG): 4.29
- pIC50 (MCF-7 [2]; MCF7, 48 h, DAY 2, without BG): 3.50
- pIC50 (MCF-7 [2]; MCF7, 72 h, DAY 3, with BG): 4.96
- pIC50 (MCF-7 [2]; MCF7, 72 h, DAY 3, without BG): 3.43
- pIC50 (MAWI [3]; 24 h, DAY 1, with BG): 3.71
- pIC50 (MAWI [3]; 24 h, DAY 1, without BG): 3.50
- pIC50 (MAWI [3]; 48 h, DAY 2, with BG): 4.23
- pIC50 (MAWI [3]; 48 h, DAY 2, without BG): 3.46
- pIC50 (MAWI [3]; 72 h, DAY 3, with BG): 4.68
- pIC50 (MAWI [3]; 72 h, DAY 3, without BG): 3.42
- pIC50 (MAWI [3]; 96 h, DAY 4, with BG): 5.14
- pIC50 (MAWI [3]; 96 h, DAY 4, without BG): 3.42
- pIC50 (MAWI [3]; 120 h, DAY 5, with BG): 6.00
- pIC50 (MAWI [3]; 120 h, DAY 5, without BG): 3.49
- time to complete uptake (ZR-75-1 [4]): ≤ 5 min
- time to complete uptake (MAWI [5]): ≤ 5 min
- pIC50 (U373 [6]; with BG): 4.74
- pIC50 (U373 [6]; without BG): 4.29
- potentiation of temozolomide toxicity by BG (U373 [6]; U373 cells, four 24 hour doses, BG present): 3 fold
- pIC50 ([7]; LOVO): 4.00 to 4.30
- pIC50 ([7]; MAWI): 4.00 to 4.30
- pIC50 ([7]; MCF-7): 4.00 to 4.30
- pIC50 ([7]; U373): 4.00 to 4.30
- pIC50 (U373 [8]; 2 hours 33 µM BG before): 4.11
- pIC50 (U373 [8]; without BG): 3.88
- Ratio IC50 [-BG]/IC50 [+BG] (U373 [8]; U373): 1.7
- pIC50 (MCF-7 [9]; 2 hours 33 µM BG before): 3.77
- pIC50 (MCF-7 [9]; without BG): 3.49
- Ratio IC50 [-BG]/IC50 [+BG] (MCF-7 [9]; MCF-7): 1.9
- pIC50 (U87MG; 2 hours 33 µM BG before): 3.88
- pIC50 (U87MG; without BG): 3.76
- Ratio IC50 [-BG]/IC50 [+BG] (U87MG; U87MG): 1.3
- pIC50 (ZR-75-1 [10]; 2 hours 33 µM BG before): 4.64
- pIC50 (ZR-75-1 [10]; without BG): 4.49
- Ratio IC50 [-BG]/IC50 [+BG] (ZR-75-1 [10]; ZR-75-1): 1.4
- pIC50 (MAWI [11]; 2 hours 33 µM BG before): 3.47
- pIC50 (MAWI [11]; without BG): 2.93
- Ratio IC50 [-BG]/IC50 [+BG] (MAWI [11]; MAWI): 3.5
- pIC50 (LS174T; 2 hours 33 µM BG before): 3.20
- pIC50 (LS174T; without BG): 3.06
- Ratio IC50 [-BG]/IC50 [+BG] (LS174T; LS174T): 1.4
- pIC50 (LOVO; 2 hours 33 µM BG before): 3.49
- pIC50 (LOVO; without BG): 3.07
- Ratio IC50 [-BG]/IC50 [+BG] (LOVO; LOVO): 2.6
